The values that follow come from PMC9704104, “Towards safer anti-inflammatory therapy: synthesis of new thymol–pyrazole hybrids as dual COX-2/5-LOX inhibitors” (Journal of Enzyme Inhibition and Medicinal Chemistry, 2022).

Holding throughout (format): biochemical
One test concerns the target T1, COX-1 (Ovis aries, UniProt P05979).
T1 construct: purchased Cayman chemicals 560131
T1 sequence (P05979 25-600): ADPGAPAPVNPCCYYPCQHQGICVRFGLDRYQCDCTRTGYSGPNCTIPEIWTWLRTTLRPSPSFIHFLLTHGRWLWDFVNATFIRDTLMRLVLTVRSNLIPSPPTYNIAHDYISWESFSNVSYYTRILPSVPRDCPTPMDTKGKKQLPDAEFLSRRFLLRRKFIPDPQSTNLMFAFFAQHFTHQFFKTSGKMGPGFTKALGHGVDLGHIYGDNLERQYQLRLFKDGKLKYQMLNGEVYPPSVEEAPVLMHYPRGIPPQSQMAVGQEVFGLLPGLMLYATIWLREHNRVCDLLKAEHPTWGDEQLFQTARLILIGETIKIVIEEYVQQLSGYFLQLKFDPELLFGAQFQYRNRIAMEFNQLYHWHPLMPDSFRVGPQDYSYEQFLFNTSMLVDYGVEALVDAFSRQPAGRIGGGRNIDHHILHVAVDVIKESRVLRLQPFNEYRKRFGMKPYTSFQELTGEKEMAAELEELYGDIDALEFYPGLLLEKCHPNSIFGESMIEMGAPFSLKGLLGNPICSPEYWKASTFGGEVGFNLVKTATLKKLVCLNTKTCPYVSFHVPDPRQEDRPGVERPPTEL
Put plainly: In vitro COX-1 inhibitory assay (Cayman colorimetric COX (ovine) inhibitor screening assay kit). Conditions: mean of three replicates ± SD.

The subject of the next test is 5-LOX. Put plainly: In vitro 5-LOX inhibitory assay (Abnova 5-LOX inhibitor screening assay kit).
The target in a further test is T2, COX-2 (Ovis aries, UniProt P79208).
T2 sequence (P79208 17-603): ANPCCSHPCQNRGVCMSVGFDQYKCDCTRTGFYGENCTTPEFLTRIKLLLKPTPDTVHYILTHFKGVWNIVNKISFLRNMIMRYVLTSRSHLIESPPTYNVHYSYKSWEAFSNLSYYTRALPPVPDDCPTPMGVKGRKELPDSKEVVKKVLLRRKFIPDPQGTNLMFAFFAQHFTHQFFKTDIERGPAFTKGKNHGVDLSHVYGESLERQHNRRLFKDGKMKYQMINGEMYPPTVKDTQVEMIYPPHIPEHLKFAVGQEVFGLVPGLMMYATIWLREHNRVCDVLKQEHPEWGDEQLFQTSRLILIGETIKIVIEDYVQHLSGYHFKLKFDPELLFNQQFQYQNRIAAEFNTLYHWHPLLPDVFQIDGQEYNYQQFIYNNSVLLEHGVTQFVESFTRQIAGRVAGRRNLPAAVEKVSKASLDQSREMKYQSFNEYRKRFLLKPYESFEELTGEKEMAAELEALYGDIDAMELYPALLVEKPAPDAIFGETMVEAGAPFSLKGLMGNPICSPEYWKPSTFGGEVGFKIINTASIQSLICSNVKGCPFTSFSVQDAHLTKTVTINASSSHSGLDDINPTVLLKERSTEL
Put plainly: In vitro COX-2 inhibitory assay (Cayman colorimetric COX (ovine) inhibitor screening assay kit). As to the method:
(Page: S20, Supplementary file).
Anti-inflammatory activity
In vitro COX-1 and COX-2 inhibitory assay […]
supplied by Cayman chemicals, Ann Arbor, MI, USA according to reported method 1. The colorimetric COX inhibitor screening assay utilizes the peroxidase component of cyclooxygenase. The peroxidase activity was assayed calorimetrically by monitoring the appearance of oxidized N,N,N',N'-tetramethyl-1,4-phenylenediamine (TMPD) at 590nm. The appearance of reagent was carried out following the instructions […]
The half- maximal inhibitor concentrations (IC50µM) were determined and the selectivity index (SI) values were calculated as IC50 (COX-1)/IC50 (COX-2).
1) Background wells- 160 µL of assay buffer and 10 µL of heme were added to background wells.
2) The 100% Initial activity wells- 150 µL of assay buffer, 10 µL of heme and 10 µL of enzyme (COX-1 or COX-2) were added.
3) Inhibitor well- 150 µL of assay buffer, 10 µL of heme and 10 µL of enzyme were added. […]
10) The absorbance was measured at 590 nm using a plate reader. […]
1) The average absorbance of all samples was determined.
2) The absorbance of background wells was subtracted from absorbance of the 100% Initial activity […]
7) Remove the cover and read the absorbance at 490-500 nm using a plate reader. […]
2) The absorbance of blank wells was subtracted from absorbance of the 100% Initial activity and the […]

Structures are written as SMILES.

On to `Cc1ccc(C(C)C)c(O)c1C=NNC(=O)c1cc(-c2ccccc2)n(-c2ccccc2)n1` [Compound 8d, N'-(2-Hydroxy-3-isopropyl-6-methylbenzylidene)-1,5-diphenyl-1H-pyrazole-3-carbo-hydrazide], for which the IC50 (in general, the concentration at which inhibition is half-maximal) amounted to 10.19 ± 0.036 µM on COX-1, 3.11 ± 0.046 µM in the test with 5-LOX and 0.11 ± 0.007 µM at COX-2 (mean of three replicates ± SD). The Selectivity index at COX-2 (SI = COX-1 IC50/COX-2 IC50) was 92.6.
